Measurements from patent publication US8686039B2, “Aqueous nanoemulsion composition containing conjugated linoleic acid” (Hwail Pharmaceutical Co., Ltd., priority 2009, dated 2014).
One block for each compound: values may come before it.

Key:
male Sprague-Dawley rats [1] = assay: Liver tissue lipid content in rats fed experimental diet; type: in vivo; conditions: HF diet + 2% test material, 5 weeks, vs HFD group, FIG. 12
Source text: (§1) 28 male Sprague-Dawley rats (5 weeks, 145±5 g) were purchased from the Orient Company (Korea) as experimental animals. Rats were adapted with a lab-chow diet in pellet form for a week. Other obesity-induction groups except the normal group (NC) were fed high fat diet ad libitum for 5 weeks to induce obesity, and then rats were divided into four groups (7 rats per group) including the normal group and bred for 5 weeks as represented in FIG. 13.
AIN-76 diet (Teklad, USA) was used as a base of the experimental diet. Test materials were added at the level of 2% of high fat diet. In the CLA group and N-CLA group, 2% of CLA and N-CLA were added, respectively, while reducing corn oil. Experimental diet and water were supplied ad libitum. […] Body weight and the amount of diet intake were measured at constant time at 2-day intervals during the overall experimental period. Feed efficiency ratio (FER) was calculated by dividing the amount of body weight gain during the experimental period with the amount of diet intake during the same period, and the results are represented in Table 16.
(§2) After breeding, rats were fasted for 12 hours and then primarily anesthetized with ether. […] Liver was isolated, collected, rapidly frozen in liquid nitrogen and stored at −70° C. until sample analysis for measurement of enzyme activity and lipid quantification. […]

male Sprague-Dawley rats [2] = assay: Organ and white adipose tissue weight in rats fed experimental diet; type: in vivo; conditions: HF diet + 2% test material, 5 weeks
Source text: as §1
(§3) AIN-76 diet (Teklad, USA) was used as a base of the experimental diet. Test materials were added at the level of 2% of high fat diet. In the CLA group and N-CLA group, 2% of CLA and N-CLA were added, respectively, while reducing corn oil. Experimental diet and water were supplied ad libitum. During the breeding period, the experimental diets were kept in a 4° C. refrigerator. Each of the animals was placed in an empty cage under a specific environmental condition, at 25±2° C. with a relative humidity of 60±5%, a lighting cycle of 12 hr light/12 hr dark. Body weight and the amount of diet intake were measured at constant time at 2-day intervals during the overall experimental period. Feed efficiency ratio (FER) was calculated by dividing the amount of body weight gain during the experimental period with the amount of diet intake during the same period, and the results are represented in Table 16.
After breeding, rats were fasted for 12 hours and then primarily anesthetized with ether. […] Collected blood was centrifuged at 3,000×g, 4° C. for 15 minutes to obtain serum, and then obtained serum was stored at −70° C. until sample analysis. Organ tissues (liver, heart, kidney, epididymal white adipose tissue and perirenal white adipose tissue) of the experimental animals were washed with PBS (phosphate buffered saline) several times, and then weighed after removing surface moisture. Liver was isolated, collected, rapidly frozen in liquid nitrogen and stored at −70° C. until sample analysis for measurement of enzyme activity and lipid quantification. The results of measuring the weight of epididymal white adipose tissue and perirenal white adipose tissue per unit body weight are represented in FIG. 10.

3T3-L1 pre-adipocytes [3] = assay: Lipolysis effect (Oil red O staining, neutral lipids); type: cell-based; conditions: 10 μg/mL, 8th day after differentiation, vs control group, FIGS. 4 and 5
Protocol: (§4) 3T3-L1 pre-adipocytes were cultured in Dulbecco's Modified Eagle's Medium (DMEM) containing 10% fetal bovine serum, 100 unit/mL penicillin and 10 μg/mL streptomycin at 37° C., 5% CO2 incubator. When 70 to 80% of cells were confluent, cells were pre-differentiated with DMEM containing dexamethazone, pioglitazone, IBMX (3-isobutyl-1-methylxanthin), insulin and FBS which are differentiation inducers, and then were differentiated with DMEM containing insulin, pioglitazone and FBS. After differentiation, lipids were matured with growth medium containing 10% FBS and insulin. Samples were dissolved in DMSO and treated in 10 μg/mL of the final concentration.
1×10^5 cells were dispensed into each well of 6-well plate and differentiated. On the 8th day after differentiation, media were removed, and cells were washed twice with ice-cold PBS. Cells were fixed with 10% formalin at room temperature for 1 hour, stained with 0.2 Oil red O (in isoprophanol) for 30 minutes, and then washed with distilled water. Isopropanol was added thereto to dissolve oil droplets, and then the content of neutral lipids was measured as absorbance at 490 nm. The results are represented in FIGS. 4 and 5.

male Sprague-Dawley rats [4] = assay: Serum cholesterol and neutral lipid in rats fed experimental diet; type: in vivo; conditions: HF diet + 2% test material, 5 weeks, FIG. 11
Source text: as §1, §3, §2
Quantification of total serum cholesterol was performed by using a test solution (Asanpharm Co., Korea) utilizing Allain et al. (1974)'s enzyme method. […] Thus, to quantify both CE and free cholesterol, CE was converted into fatty acid and free cholesterol by cholesterol esterase. […] H2O2 was mixed with peroxidase, phenol and 4-amino-antipyrine to emit red color, and then absorbance at 500 nm was measured. […]
The content of HDL-cholesterol was measured with kit reagent (Asanpharm Co., Korea). […]

male Sprague-Dawley rats [5] = assay: Body weight, diet intake and FER in high fat diet obesity-induced rats; type: in vivo; conditions: HF diet + 2% test material
Source text: as §1, §3

[6] = system: leptin secreted from adipocytes; assay: Leptin secretion (ELISA); type: cell-based, mouse; conditions: 10 μg/mL, FIG. 8
Protocol: 3T3-L1 pre-adipocytes were cultured in Dulbecco's Modified Eagle's Medium (DMEM) containing 10% fetal bovine serum, 100 unit/mL penicillin and 10 μg/mL streptomycin at 37° C., 5% CO2 incubator. When 70 to 80% of cells were confluent, cells were pre-differentiated with DMEM containing dexamethazone, pioglitazone, IBMX (3-isobutyl-1-methylxanthin), insulin and FBS which are differentiation inducers, and then were differentiated with DMEM containing insulin, pioglitazone and FBS. After differentiation, lipids were matured with growth medium containing 10% FBS and insulin. Samples were dissolved in DMSO and treated in 10 μg/mL of the final concentration. An experiment was carried out to check whether the secretion amount of leptin, which is known as an appetite-related hormone, is regulated. The amount of leptin secreted from adipocytes was measured by enzyme-linked immunosorbent assay (ELISA) on media collected after treatment of adipocytes with sample. 100 μl of rabbit anti-mouse leptin IgG was aliquoted into an ELISA plate. […] Color development was elicited by the use of alkaline phosphatase conjugated substrate kit, and then absorbance at 490 nm was measured by an ELISA reader (SUNRISE, TECAN, Austria). […]

3T3-L1 pre-adipocytes [7] = assay: Glycerol quantification (free glycerol reagent); type: cell-based; conditions: 10 μg/mL, medium after 24 hours treatment, FIG. 7
Protocol: as §4
Glycerol was quantified with an enzyme reaction method by using free glycerol reagent (Sigma, USA). 10 μl of medium, collected after treatment of cells with sample for 24 hours was added to 0.8 mL of Free glycerol reagent which was pre-warmed at 37° C., and then the reaction of the mixture was carried out in 37° C. water bath for 5 minutes. For quantification of glycerol, standard glycerol (25 μg/10 μl) was reacted in the same manner as above, and then absorbance at 540 nm was measured. The content of glycerol was calculated with the following formula.

3T3-L1 pre-adipocytes [8] = type: cell-based; conditions: mouse, 24 h, 10 μg/mL
Protocol: as §4
1×10^4 pre-adipocytes were dispensed into each well of 96-well plate, and each sample was treated. Then cells were incubated at 37° C., 5% CO2 incubator for 24 hours. After 24 hours, MTT (in phosphate buffered saline, final concentration was […]) was treated, and then cells were incubated for 4 hours. Formed formazan crystal was dissolved with DMSO:ethanol (1:1) and absorbance at 540 nm was measured by a microplate reader (SUNRISE, TECAN, Austria). Cell viability was determined by the ratio of absorbance value of sample treating group to absorbance value of control group, and the results are represented in FIG. 3. […] Thus, there is no statistically significant difference from that of the control group.

3T3-L1 pre-adipocytes [9] = assay: Adipogenesis inhibitory effect (Oil red O staining); type: cell-based; conditions: Mus musculus, 10 μg/mL, treated with MDI medium 48 hours, 8th day after differentiation, FIG. 6, read-out: Content of neutral lipids decreased compared with the control group (adipogenesis inhibitory effect)
Protocol: as §4, with “concentration. 1×10^5 cells were dispensed into each well of 6-well plate. When 70% of cells were confluent, cells were treated with MDI medium (differentiation medium) and each sample at the same time, then incubated for 48 hours. On the 8th day after differentiation, the content of neutral lipids was measured with Oil red O staining. The results are represented in FIG. 6.” for “concentration.”

Organ Weight: Heart (male Sprague-Dawley rats [2]): 2.43 ± 0.17 mg/g B.W.
Organ Weight: Kidney (male Sprague-Dawley rats [2]): 5.35 ± 0.24 mg/g B.W.
Organ Weight: Liver (male Sprague-Dawley rats [2]): 44.69 ± 2.57 mg/g B.W.
Compound: conjugated linoleic acid [CLA]
Content of neutral lipids in liver tissue (male Sprague-Dawley rats [1]): statistically significant decrease compared with the HFD group
Content of total cholesterol in liver tissue (male Sprague-Dawley rats [1]): statistically significant decrease compared with the HFD group
Weight of epididymal white adipose tissue and perirenal white adipose tissue per unit body weight (male Sprague-Dawley rats [2]; vs HFD group, FIG. 10): slightly lighter than in the HFD group without statistical significance
Content of neutral lipids (lipolysis effect) (3T3-L1 pre-adipocytes [3]): tendency of decreasing neutral lipids
Content of serum neutral lipid (triglyceride, TG) (male Sprague-Dawley rats [4]): lower than HFD group with statistical significance
Serum total cholesterol (TC) (male Sprague-Dawley rats [4]; vs HFD group): decreased compared with the HFD group with statistical significance
Serum low density lipid (LDL) (male Sprague-Dawley rats [4]; vs HFD group, calculated by Friedewald method): decreased compared with the HFD group with statistical significance
Body weight in the 5th week (male Sprague-Dawley rats [5]; 5th week, FIG. 9): not different from that of the HFD group with statistical significance
Body Weight Gain (male Sprague-Dawley rats [5]; 5 weeks): 2.89 ± 0.55 g/day
FER (food efficiency ratio) = body weight gain/food intake (male Sprague-Dawley rats [5]; 5 weeks): 0.11 ± 0.02
Food Intake (male Sprague-Dawley rats [5]; 5 weeks): 28.18 ± 0.21 g/day
Body weight change during the experiment period (male Sprague-Dawley rats [5]; weeks 2 onward, vs HFD group, FIG. 9): lower than in the HFD group from the 2nd week to the 4th week
Amount of leptin secretion decreased compared with the control group [6]: 8.3%
Content of glycerol (secretion of glycerol, lipolysis) (3T3-L1 pre-adipocytes [7]): tendency of increasing the secretion of glycerol

Compound: CCCCCCCCCCC[C@@H](C[C@@H]1OC(=O)[C@H]1CCCCCC)OC(=O)[C@H](CC(C)C)NC=O [Orlistat]
Cell viability (3T3-L1 pre-adipocytes [8]): 103%
Content of neutral lipids (lipolysis effect) (3T3-L1 pre-adipocytes [3]): tendency of decreasing neutral lipids
inhibition at 10 µg/mL (3T3-L1 pre-adipocytes [9]): 12.5%
Amount of leptin secretion decreased compared with the control group [6]: 11.6%
Content of glycerol (secretion of glycerol, lipolysis) (3T3-L1 pre-adipocytes [7]): 1.57 µg/mL
